Columns and labels:
[1] = test system: CYP3A4; experiment: CYP3A4 induction potential for ADME profile evaluation (CYP3A4 mRNA by RT-PCR in primary human hepatocytes); type: in vitro ADME; conditions: for CYP3A4 induction Emax (%): approximately 48 hours, 0.3-10 μM, relative to 10 μM rifampicin
Description: Such test is based, for example, on the quantification of CYP3A4 mRNA induction performed by RT-PCR analysis. Said % Emax may be calculated as detailed in the illustrative part under the following formula:
[formula] • ECompound: relative fold mRNA expression following treatment with test compound, • EPositive control: relative fold mRNA expression following reference inducer i.e., 10 μM rifampicin, • EVehicle control: relative fold mRNA expression following vehicle treatment i.e., 0.1% DMSO, and • E is the efficiency of the quantitative PCR.
Said test evaluates the potential induction effect of the tested compounds on CYP3A4 gene expression in primary cultures of human hepatocytes from one or two donors with established concentration-dependent response to the reference inducer, rifampicin.
Before seeding, cell viability was estimated using the Trypan blue dye exclusion test. Hepatocytes were seeded on collagen I-coated 96-well plates at a density of 70 000 cells/well in 100 μL of plating medium for at least 4 hours under a humidified atmosphere of CO2/air (5%/95%), at 37° C. After the cell attachment period, the plating medium was removed, and the hepatocytes were treated daily for 2 consecutive days (approximately 48 hours), with 100 μL per well of fresh culture medium containing either the vehicle control (0.1% DMSO) or the investigated compounds at four concentrations 0.3, 1, 3 and 10 μM, or rifampicin, the reference inducer at 10 μM. All incubations were performed in duplicates.
Ten mM stock solutions of the different compounds were diluted to obtain 0.3, 1 and 3 mM daughter solutions. The day of the experiment, stock solutions were diluted 1000-fold in the incubation/culture medium to achieve final concentrations of 0.3, 1, 3 and 10 μM.
After the 48-hour incubation period with the test compounds, the cell culture medium was removed, and the cells were lysed to release the RNA for CYP3A4 gene expression assessment. Quantification of CYP3A4 mRNA induction was performed by RT-PCR analysis.
Total RNA was extracted from hepatocytes using the King Fisher™ Flex Purification System with the MagMAX mirVana Total RNA Isolation kit (Thermo Fisher Scientific, USA). RNA was quantified by fluorimetry using the Quantifluor RNA System (Promega, USA) and cDNAs were synthesized from […] total RNA using the iScript Reverse Transcription Supermix for RT-qPCR from Biorad (France) at 42° C. for 30 min. cDNA samples were then diluted in water (1:5) and 5 μL of each sample was used for real-time PCR amplification by using the SYBR Green kit from Biorad (France). The following program was used: a denaturation step at 95° C. for 30 sec, and 40 cycles of PCR (denaturation, 95° C., 10 sec and annealing and extension, 58° C., 1 min). In all cases, the quality of the PCR product was assessed by monitoring a fusion step at the end of the run. Human forward and reverse primer sequences used were: 5′-CCT-GGC-ACC-CAG-CAC-AAT-3′ and 5′-GGG-CCG GAC-TCG-TCA-TAC-3′ for actin, 5′-CAC-AAA-CG-GAG-GCC-TTT-TG-3′ and 5′-ATC-CAT-GCT-GTA-GGC-CCC-AA-3′ for CYP3A4.
Cq (quantification cycle) values were determined using a multi-variable, non-linear regression model to individual well traces and then using this model an optimal Cq value was computed. Cq values are inversely proportional to the amount of target nucleic acid in the sample (i.e., lowest Cq level corresponds to the greatest amount of target nucleic acid in the sample). Cq of reference gene (in this study human actin) was also used as positive control of quantitative PCR.
The extent of induction or % of Emax, resulting from treatment with test compounds was calculated under the following formula: […]

[2] = target: T1, ERα (Homo sapiens, UniProt P03372); experiment: Estrogen receptor degradation activity (breast cancer cell ERα in cell western assay); type: cell-based; conditions: MCF7 cells; for % Degradation At 0.3 μM: 4 hours, % of ERα levels decrease relative to fulvestrant
T1 construct: host or cells: MCF7
T1 sequence (P03372 1-595): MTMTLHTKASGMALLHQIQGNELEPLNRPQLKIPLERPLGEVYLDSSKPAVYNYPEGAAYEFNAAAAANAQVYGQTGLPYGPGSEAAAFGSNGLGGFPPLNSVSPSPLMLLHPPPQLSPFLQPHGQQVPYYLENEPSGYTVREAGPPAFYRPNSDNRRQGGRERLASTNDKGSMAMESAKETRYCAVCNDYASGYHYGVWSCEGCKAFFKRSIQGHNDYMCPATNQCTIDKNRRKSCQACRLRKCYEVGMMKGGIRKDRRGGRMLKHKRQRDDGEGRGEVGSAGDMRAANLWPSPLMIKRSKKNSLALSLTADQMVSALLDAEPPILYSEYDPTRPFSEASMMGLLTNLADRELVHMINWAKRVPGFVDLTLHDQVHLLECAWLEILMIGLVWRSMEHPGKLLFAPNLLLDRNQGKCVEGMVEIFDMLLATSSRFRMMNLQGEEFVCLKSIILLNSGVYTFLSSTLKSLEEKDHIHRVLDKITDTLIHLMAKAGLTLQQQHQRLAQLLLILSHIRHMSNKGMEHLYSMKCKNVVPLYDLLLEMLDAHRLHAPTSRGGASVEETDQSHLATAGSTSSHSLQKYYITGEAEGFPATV
Description: Said test involves measuring the in vitro degradation activity of the compounds of the Table 1a.
The measurements of the degradation activities were made using a breast cancer cell ERα in cell western assay as described hereunder.
MCF7 cells (ATCC) were seeded in 384 wells microplate (collagen coated) at a concentration of 10000 cells/30 μL per well in red phenol free MEM alpha medium (invitrogen) containing 5% charcoal dextran striped FBS. The following day, 9 points serial 1:5 dilution of each compound was added to the cells in 2.5p L at final concentrations ranging from 0.3-0.0000018 μM (in table 2), or 0.1 μM for fulvestrant (using as positive control). At 4 hours post compound addition the cells were fixed by adding 25 μL of formalin (final concentration 5% formalin containing 0.1% triton) for 10 minutes at room temperature and then washed twice with PBS. Then, 50 μL of LI-COR blocking buffer containing 0.1% Triton was added to plate for 30 minutes at room temperature. LI-COR blocking buffer was removed and cells were incubated overnight at cold room with 50 μL anti-ER rabbit monoclonal antibody (Thermo scientific MA1-39540) diluted at 1:1000 in LI-COR blocking buffer containing 0.1% tween-20. Wells which were treated with blocking buffer but no antibody were used as background control. Wells were washed twice with PBS (0.1% tween-20) and incubated at 37° C. for 60 minutes in LI-COR (0.1% tween-20) containing goat anti-rabbit antibody Alexa 488 (1:1000) and Syto-64 a DNA dye (2 μM final concentration). Cells were then washed 3 times in PBS and scanned in ACUMEN explorer (TTP-Labtech). Integrated intensities in the green fluorescence and red fluorescence were measured to determine the levels of ERα and DNA respectively.
The degradation activity with respect to estrogen receptors in this test is given by the concentration which degrades 50% of the estrogen receptor (or IC50) in nM.
The % of ERα levels decrease were determined as follows: % inhibition=100*(1−(sample−fulvestrant: DMSO−fulvestrant)).

CYP3A4 induction Emax (%) [1] [%] | % Degradation At 0.3 μM [2] [%] | degradation activity on estrogen receptors (in words) ([2]; tested at 0.3 μM) | CYP3A4 induction (in words) ([1]; rating based on % Emax relative to rifampicin) | Compound
15 | 85 |  |  | Cc1cccc(C2=C(c3ccc(CC4CCN(CCCF)C4)cc3)c3ccc(C(=O)O)cc3CCC2)c1C(F)(F)F (single isomer, unassigned; isomer 1) [Compound 30, 9-(4-((1-(3-fluoropropyl)pyrrolidin-3-yl)methyl)phenyl)-8-(3-methyl-2-(trifluoromethyl)phenyl)-6,7-dihydro-5H-benzo[7]annulene-3-carboxylic acid, Isomer 1]
30 | 83 |  |  | Cc1cc(F)ccc1C1=C(c2ccc(CC3CCN(CCC(F)F)C3)cc2)c2ccc(C(=O)O)cc2CCC1.Cl (single isomer, unassigned; isomer 1) [Compound 4, 9-(4-((1-(3,3-difluoropropyl)pyrrolidin-3-yl)methyl)phenyl)-8-(4-fluoro-2-methylphenyl)-6,7-dihydro-5H-benzo[7]annulene-3-carboxylic acid hydrochloride, Isomer 1]
8 | 85 |  |  | CC1(C)CCC(C2=C(c3ccc(CC4CCN(CCCF)C4)cc3)c3ccc(C(=O)O)cc3CCC2)CC1.Cl (single isomer, unassigned; isomer 1) [Compound 3, 8-(4,4-dimethylcyclohexyl)-9-(4-((1-(3-fluoropropyl)pyrrolidin-3-yl)methyl)phenyl)-6,7-dihydro-5H-benzo[7]annulene-3-carboxylic acid, Isomer 1]
85 | 89 | significant degradation activity |  | O=C(O)c1ccc2c(c1)CCCC(c1ccc(Cl)cc1Cl)=C2c1ccc(N[C@H]2CCN(CCCF)C2)cc1 [Compound C2, (S)-8-(2,4-Dichlorophenyl)-9-(4-((1-(3-fluoropropyl)pyrrolidin-3-yl)amino)phenyl)-6,7-dihydro-5H-benzo[7]annulene-3-carboxylic acid, reference compound]
93 |  |  |  | O=C(O)c1ccc2c(c1)CCCC(c1ccc(Cl)cc1Cl)=C2c1ccc(O[C@H]2CCN(CCCF)C2)cc1 [(C1), reference compound]
13 | 80 |  |  | Cl.O=C(O)c1ccc2c(c1)CCCC(c1ccc(F)cc1C(F)(F)F)=C2c1ccc(CC2CCN(CCC(F)F)C2)cc1 (single isomer, unassigned; isomer 1) [Compound 5, 9-(4-((1-(3,3-difluoropropyl)pyrrolidin-3-yl)methyl)phenyl)-8-(4-fluoro-2-(trifluoromethyl)phenyl)-6,7-dihydro-5H-benzo[7]annulene-3-carboxylic acid hydrochloride, Isomer 1]
26 | 90 |  |  | Cl.O=C(O)c1ccc2c(c1)CCCC(c1cccc(Cl)c1C(F)(F)F)=C2c1ccc(CC2CCN(CCCF)C2)cc1 (single isomer, unassigned; isomer 1) [Compound 13, 8-(3-chloro-2-(trifluoromethyl)phenyl)-9-(4-((1-(3-fluoropropyl)pyrrolidin-3-yl)methyl)phenyl)-6,7-dihydro-5H-benzo[7]annulene-3-carboxylic acid hydrochloride, Isomer 1]
8 | 81 |  |  | Cc1c(Cl)cccc1C1=C(c2ccc(CC3CCN(CCC(F)F)C3)cc2)c2ccc(C(=O)O)cc2CCC1.Cl (single isomer, unassigned; isomer 1) [Compound 6, 8-(3-chloro-2-methylphenyl)-9-(4-((1-(3,3-difluoropropyl)pyrrolidin-3-yl)methyl)phenyl)-6,7-dihydro-5H-benzo[7]annulene-3-carboxylic acid hydrochloride, Isomer 1]
7 | 85 |  | no CYP3A4 induction | O=C(O)c1ccc2c(c1)CCCC(c1ccc(Cl)cc1Cl)=C2c1ccc(C[C@H]2CCN(CCCF)C2)cc1 [Compound 1, 8-(2,4-dichlorophenyl)-9-(4-((1-(3-fluoropropyl)pyrrolidin-3-yl)methyl)phenyl)-6,7-dihydro-5H-benzo[7]annulene-3-carboxylic acid, (S) Isomer]
42 | 87 |  |  | Cl.O=C(O)c1ccc2c(c1)CCCC(c1cccc(F)c1Cl)=C2c1ccc(CC2CCN(CCCF)C2)cc1 (single isomer, unassigned; isomer 1) [Compound 21, 8-(2-chloro-3-fluorophenyl)-9-(4-((1-(3-fluoropropyl)pyrrolidin-3-yl)methyl)phenyl)-6,7-dihydro-5H-benzo[7]annulene-3-carboxylic acid hydrochloride, Isomer 1]
23 | 74 |  |  | Cl.O=C(O)c1ccc2c(c1)CCCC(c1ccc(F)cc1Cl)=C2c1ccc(CC2CCN(CCCF)C2)cc1 (single isomer, unassigned; isomer 1) [Compound 2, 8-(2-chloro-4-fluorophenyl)-9-(4-((1-(3-fluoropropyl)pyrrolidin-3-yl)methyl)phenyl)-6,7-dihydro-5H-benzo[7]annulene-3-carboxylic acid hydrochloride, Isomer 1]
